# Measured values: patent publication US11111253B2, “6-aryl-7-substituted-3-(1H-pyrazol-5-yl)-7H-[1,2,4]triazolo[3,4-b][1,3,4]thiadiazines as inhibitors of the STAT3 pathway with anti-proliferative activity” (UNIVERSITY OF PITTSBURGH—OF THE COMMONWEALTH SYSTEM OF …, priority 2015, dated 2021)
# How the values were obtained:
# Assay type in all cases: cell-based
# STAT1 = STAT1 assay (selectivity); conditions: Table 4
# Procedure: (§1) Compound samples (in 3-5 mg quantities) were evaluated in a variety of assays. All compound submissions were fully characterized (1H, 13C, IR, FIRMS), satisfied purity criteria (≥95% LC/MC, ELS).
# STAT3 = assay: HCS STAT3 assay; conditions: Table 4
# Procedure: as §1
# Cal33 cells = assay: Cal33 growth inhibition; conditions: Table 5; * average of 2 experiments
# Procedure: as §1
# OSC19 = assay: Growth inhibition OSC19; conditions: Table 6; average of 2 experiments
# FADU = assay: Growth inhibition FADU; conditions: Table 6; average of 2 experiments
# 686LN = assay: Growth inhibition 686LN; conditions: Table 6; average of 2 experiments
compound,measurement,setting,value
"1-(3-(6-(4-Methoxyphenyl)-7-methyl-7H-[1,2,4]triazolo[3,4-b][1,3,4]thiadiazin-3-yl)-5-phenyl-1H-pyrazol-1-yl)ethanone [8A]",IC50,STAT1,40.6 ± 7.5 µM
"1-(5-(6-(4-methoxyphenyl)-7-methyl-7H-[1,2,4]triazolo[3,4-b][1,3,4]thiadiazin-3-yl)-3-phenyl-1H-pyrazol-1-yl)ethanone [8B]",IC50,STAT3,3.7 µM
same,IC50,STAT1,> 50 µM
"COc1ccc(C2=Nn3c(nnc3-c3cc(-c4ccc(Cl)cc4)n[nH]3)S[C@@H]2C)cc1 (single isomer, unassigned; ent-1) [24 (ent-1)]",GI50,Cal33 cells,2.7 µM
CC1Sc2nnc(-c3cc(-c4ccccc4)n[nH]3)n2N=C1c1ccccc1 (stereo not shown) [compound 21],GI50,OSC19,31.3 µM
same,GI50,FADU,32.7 µM
same,GI50,686LN,32.2 µM
